Assay [1] has as its system MIA-PACA-2 cells. The assay can be described thus: Cell proliferation assay, MIA-PACA-2 cells (Cell-titer Glo). Format: cell-based. Particulars: Homo sapiens, 96 h incubation. The protocol: (§1) Pave the MIA-PACA-2 cells into a 96-well ultra-low adsorption plate at 600 cells, 160 μL/well. After incubating overnight, compound solutions of gradient concentration was prepared, and added 40 μL of DMSO solution of the test compound of each concentration to the cells of each well. The final concentration of the compound is 10000, 2000, 400, 80, 16, 3.2, 0.64, 0.12, 0.025, 0 nM (the final concentration of DMSO is 0.25%). Incubated for 96 h at 37° C. and 5% CO2. 50 μL of Cell-titer Glo working solution was added to each well, shaked and mixed, and incubated at room temperature for 10 minutes. The multi-functional microplate reader read the luminescence value, and converted the luminescence value reading into inhibition percentage.
(§2) Inhibition percentage=(maximum value−reading)/(maximum value−minimum value)*100.
(§3) The “maximum value” was the DMSO control, the “minimum value” indicates the cell-free control group.
(§4) Graphpad Prism software was used to perform curve fitting and obtain IC50 value.
Refer to Table 3 for the IC50 data of some compounds in the examples inhibiting MIA-PACA-2 cells.

The subject of assay [2] is H358 cells. The assay can be described thus: Cell proliferation assay, H358 cells (Cell-titer Glo). Format: cell-based. Particulars: Homo sapiens, NCI-H358, 96 h incubation. As for the experimental part:
as §1, with “the H358” for “the MIA-PACA-2”, “cells on” for “cells into”, “plate with 2000 cells and 190” for “plate at 600 cells, 160”, “added 10” for “added 40”, “10000, 3333.3, 1111.1, 370.4, 123.5, 41.2, 13.7, 4.6, 1.5,” for “10000, 2000, 400, 80, 16, 3.2, 0.64, 0.12, 0.025,”
as §2, §3, §4
Refer to table 3 for the IC50 data of some compounds in the Examples for inhibiting H358 cells.

As a reminder, the IC50 is the concentration that inhibits the measured activity by half. Take `C=CC(=O)N1CC2(CCN(c3nc(C4CCN(C(=O)OC)CC4)nc4c(OCC(F)F)c(-c5c(C)ccc6[nH]ncc56)c(C=C)cc34)CC2)C1` [Example 85, Methyl 4-(4-(2-acryloyl-2,7-diazazospiro [3.5]nonan-7-yl)-8-(2,2-difluoroethoxy)-7-(5-methyl-1H-indazole-4-yl)-6-vinylquinazolin-2-yl) piperidine-1-carboxylic acid]: the results for the IC50 in assay [1] and in assay [2] were 91.7 nM and 124 nM, respectively.

As for `C=CC(=O)N1CC2(CCN(c3nc(C4CCN(C)CC4)nc4c(OC)c(-c5c(C)ccc6[nH]ncc56)c(C=C)cc34)CC2)C1` [Example 13, 1-(7-(8-methoxy-7-(5-methyl-1H-indazol-4-yl)-2-(1-methylpiperidin-4-yl)-6-vinylquinazolin-4-yl)-2,7-diazaspiro[3.5]nonan-2-yl)prop-2-en-1-one], the IC50 in assay [1] is 22 nM; in assay [2], 26.3 nM.

In the case of `C=CC(=O)N1CC2(CCN(c3nc(C4CCN(C)CC4)nc4c(OCC(F)(F)F)c(-c5c(C)ccc6[nH]ncc56)c(Cl)cc34)CC2)C1` [Example 32, 1-(7-(6-chloro-7-(5-methyl-1H-indazol-4-yl)-2-(1-methylpiperidin-4-yl)-8-(2,2,2-trifluoroethoxy)quinazoline-4-yl)-2,7-diazaspiro[3.5]nonan-2-yl)prop-2-en-1-one], the IC50 in assay [1] worked out at 16.7 nM; in assay [2], 17.9 nM.

For the compound `C=CC(=O)N1CC2(CCN(c3nc(C4CCN(C5CCC5)CC4)nc4c(OCC(F)(F)F)c(-c5c(C)ccc6[nH]ncc56)c(C=C)cc34)CC2)C1` [Example 69, 1-(7-(2-(1-cyclobutylpiperidin-4-yl)-7-(5-methyl-1H-indazol-4-yl)-8-(2,2,2-trifluoroethoxy)-6-vinylquinazolin-4-yl)-2,7-diazspiro [3.5]nonan-2-yl) propyl-2-en-1-one], the IC50 in assay [1] was 3.7 nM; in assay [2], 3.4 nM.

As for `C=CC(=O)N1CC2(CCN(c3nc(C4CCN(C)CC4)nc4c(OC)c(-c5c(C)ccc6[nH]ncc56)c(Cl)cc34)CC2)C1` [Example 12, 1-(7-(6-chloro-8-methoxy-7-(5-methyl-1H-indazol-4-yl)-2-(1-methylpiperidine-4-yl)-quinazolin-4-yl)-2,7-diazaspiro[3.5]nonan-2-yl)prop-2-en-1-one], the IC50 worked out at 107 nM in assay [1] and 76.2 nM in assay [2].

With `C=CC(=O)N1CC2(CCN(c3nc(C4CCNCC4)nc4c(OCC(F)(F)F)c(-c5c(C)ccc6[nH]ncc56)c(C=C)cc34)CC2)C1` [Example 63, 1-(7-(7-(5-methyl-1H-indazol-4-yl)-2-(piperidin-4-yl)-8-(2,2,2-trifluoroethoxy)-6-vinylquinazoline-4-yl)-2,7-diazaspiro[3.5]nonan-2-yl)prop-2-en-1-one], the concentration for half-maximal inhibition (IC50) in assay [1] was determined as 406 nM; in assay [2], 187 nM.

Consider `C=CC(=O)N1CC2(CCN(c3nc(C4CCN(CCC#N)CC4)nc4c(OCC(F)(F)F)c(-c5c(C)ccc6[nH]ncc56)c(C=C)cc34)CC2)C1` [Example 59, 3-(4-(4-(2-acryloyl-2,7-diazazospiro [3.5]nonan-7-yl)-7-(5-methyl-1H-indazole-4-yl)-8-(2,2,2-trifluoroethoxy)-6-vinylquinazolin-2-yl)piperidin-1-yl) propionitrile], for which the values for the IC50 in assay [1] and in assay [2] were 6.9 nM and 6.4 nM, respectively.

`C=CC(=O)N1CC2(CCN(c3nc(C4CCN(CCF)CC4)nc4c(OCC(F)(F)F)c(-c5c(C)ccc6[nH]ncc56)c(C=C)cc34)CC2)C1` [Example 75, 1-(7-(2-(1-(2-(fluoroethyl))piperidin-4-yl)-7-(5-methyl-1H-indazole-4-yl)-8-(2,2,2-trifluoroethoxy)-6-vinylquinazolin-4-yl)-2,7-diazarospiro [3.5]nonan-2-yl) propyl-2-en-1-one]: the IC50 in assay [1] was found to be 3.6 nM; in assay [2], 2.6 nM.

On to `C=CC(=O)N1CC2(CCN(c3nc(C4CCN(CCOC)CC4)nc4c(OCC(F)(F)F)c(-c5c(C)ccc6[nH]ncc56)c(CC)cc34)CC2)C1` [Example 35, 1-(7-(6-ethyl-2-(1-(2-methoxyethyl)piperidin-4-yl)-7-(5-methyl-1H-indazol-4-yl)-8-(2,2,2-trifluoroethoxy)quinazolin-4-yl)-2,7-diazaspiro[3.5]nonan-2-yl)prop-2-en-1-one], for which the IC50 in assay [1] came to 10.9 nM; in assay [2] it was 9.6 nM.

`C=CC(=O)N1CC2(CCN(c3nc(C4CN(CCC#N)C4)nc4c(OCC(F)(F)F)c(-c5c(C)ccc6[nH]ncc56)c(CC)cc34)CC2)C1` [Example 39, 3-(3-(4-(2-acryloyl-2,7-diazaspiro[3.5]nonan-7-yl)-6-ethyl-7-(5-methyl-1H-indazol-4-yl)-8-(2,2,2-trifluoroethoxy)quinazolin-2-yl)azetidin-1-yl)propionitrile]: the IC50 amounted to 78 nM in assay [1] and 97.8 nM in assay [2].

For `C=CC(=O)N1CC2(CCN(c3nc(C4CCN(C)CC4)nc4c(OCC(F)F)c(-c5c(C)ccc6[nH]ncc56)c(CC)cc34)CC2)C1` [Example 28], the IC50 in assay [1] came out at 61.4 nM; in assay [2], 44.7 nM.

Take `C=CC(=O)N1CC2(CCN(c3nc(C4CN(CC)C4)nc4c(OCC(F)(F)F)c(-c5c(C)ccc6[nH]ncc56)c(CC)cc34)CC2)C1` [Example 46, 1-(7-(6-ethyl-2-(1-ethyl-azacyclobutane-3-yl)-7-(5-methyl-1H-indazole-4-yl)-8-(2,2,2-trifluoroethoxy)quinazolin-4-yl)-2,7-diazarospiro [3.5]nonan-2-yl) propyl-2-en-1-one]: the IC50 was found to be 34 nM in assay [1] and 37 nM in assay [2].

Take `C=CC(=O)N1CC2(CCN(c3nc(C4CCN(Cc5ccccc5)CC4)nc4c(OCC(F)(F)F)c(-c5c(C)ccc6[nH]ncc56)c(C=C)cc34)CC2)C1` [Example 77, 1-(7-(2-(1-benzylpiperidin-4-yl)-7-(5-methyl-1H-indazol-4-yl)-8-(2,2,2-trifluoroethoxy)-6-vinylquinazolin-4-yl)-2,7-diazarospiro [3.5]nonan-2-yl) propyl-2-en-1-one]: the IC50 is 33.7 nM in assay [1] and 37.6 nM in assay [2].

Turning to `C=CC(=O)N1CC2(CCN(c3nc(C4CN(C5COC5)C4)nc4c(OCC(F)(F)F)c(-c5c(C)ccc6[nH]ncc56)c(CC)cc34)CC2)C1` [Example 40, 1-(7-(6-ethyl-7-(5-methyl-1H-indazole-4-yl)-2-(1-(oxacyclobutan-3-yl)azacyclobutane-3-yl)-8-(2,2,2-trifluoroethoxy)quinazolin-4-yl) 2,7-diazspiro [3.5]nonan-2-yl) propyl-2-en-1-one], the IC50 in assay [1] was found to be 47.7 nM; in assay [2] it was 39 nM.

In the case of `C=CC(=O)N1CC2(CCN(c3nc(C4CCN(C(C)C)CC4)nc4c(OCC(F)(F)F)c(-c5c(C)ccc6[nH]ncc56)c(C=C)cc34)CC2)C1` [Example 71], the IC50 in assay [1] stood at 8.3 nM; in assay [2] it was 7.4 nM.

As to `C=CC(=O)N1CC2(CCN(c3nc(C4CCN(C)CC4)nc4c(OCCF)c(-c5c(C)ccc6[nH]ncc56)c(CC)cc34)CC2)C1` [Example 29], the results for the IC50 in assay [1] and in assay [2] were 455 nM and 1080 nM, respectively.

`C=CC(=O)N1CC2(CCN(c3nc(C4CCN(Cc5cnn(C)c5)CC4)nc4c(OCC(F)(F)F)c(-c5c(C)ccc6[nH]ncc56)c(C=C)cc34)CC2)C1` [Example 78, 1-(7-(7-(5-methyl-1H-indazol-4-yl)-2-(1-((1-methyl-1H-pyrazol-4-yl)methyl)piperidin-4-yl]-8-(2,2,2-trifluoroethoxy)-6-vinylquinazolin-4-yl)-2,7-diazarospiro [3.5]nonan-2-yl) propyl-2-en-1-one]: the IC50 in assay [1] was 62.8 nM; in assay [2], 27.2 nM.

`C=CC(=O)N1CC2(CCN(c3nc(C4CCN(C)CC4)nc4c(OCC(F)(F)F)c(-c5cc(F)cc(F)c5)c(C5CC5)cc34)CC2)C1` [Example 20]: the IC50 in assay [1] worked out at 1320 nM; in assay [2] it was 4200 nM.

With `C=CC(=O)N1CC2(CCN(c3nc(C4CN(C5CCC5)C4)nc4c(OCC(F)(F)F)c(-c5c(C)ccc6[nH]ncc56)c(CC)cc34)CC2)C1` [Example 43, 1-(7-(2-(1-cyclobutylazocyclobutane-3-yl)-6-ethyl-7-(5-methyl-1H-indazole-4-yl)-8-(2,2,2-trifluoroethoxy)quinazolin-4-yl)-2,7-diazarospiro [3.5]nonan-2-yl) propyl-2-en-1-one], the IC50 in assay [1] turned out to be 378 nM; in assay [2] it was 315 nM.

`C=CC(=O)N1CC2(CCN(c3nc(C4CCN(C5CCN(C(=O)OCC)CC5)CC4)nc4c(OCC(F)(F)F)c(-c5c(C)ccc6[nH]ncc56)c(C=C)cc34)CC2)C1` [Example 82, Ethyl 4-(4-(2-acryloyl-2,7-diazspiro [3.5]nonan-7-yl)-7-(5-methyl-1H-indazole-4-yl)-8-(2,2,2-trifluoroethoxy) 6-vinylquinazolin-2-yl)-[1,4-bipiperidine]-1′-carboxylate]: the IC50 came to 12.5 nM in assay [1] and 7.6 nM in assay [2].

Take `C=CC(=O)N1CC2(CCN(c3nc(C4CCN(C)CC4)nc4c(OCC(F)(F)F)c(-c5ccnc6[nH]ncc56)c(C5CC5)cc34)CC2)C1` [Example 18]: the IC50 was found to be 177 nM in assay [1] and 715 nM in assay [2].

Source of the values: US20230219956A1 (BETTA PHARMACEUTICALS CO.,LTD, priority 2019, published 2023).
